Measured values taken from paper PMC5784245, “An Optimized Synthetic-Bioinformatic Natural Product Antibiotic Sterilizes Multidrug-Resistant Acinetobacter baumannii-Infected Wounds” (mSphere, 2018).
In brackets after ≈: the same amount, converted by molar mass. Read-outs that look alike come from different tables or passages of the source. Non-standard residues stand in square brackets, D forms with d. Residues, ends and D or L forms follow the SMILES beside them. *: point of attachment. Decanoyl = CCCCCCCCCC(=O)*; dOrn = NCCC[C@@H](N)C(=O)O; Orn = NCCC[C@H](N)C(=O)O

Experiments:
[1] = system: MDR A. baumannii strain AB5075; test: Rat cutaneous wound model, efficacy; assay type: in vivo, Sprague-Dawley rats; conditions: rat wound infected with AB5075 (500 CFU); topical 10 mg/ml twice daily from 0.5 h postinoculation; four wounds, ±1 SD
Procedure: The rat cutaneous wound model was used as described previously ([21]). Protocols for animal studies were approved by the Rutgers University Institutional Animal Care and Use Committee. All animals were humanely euthanized at the study endpoint by following the AVMA Guidelines for the Euthanasia of Animals. Immunocompetent Sprague-Dawley female rats (~200 g) were anesthetized by intraperitoneal injection of 100 mg/kg ketamine plus 10 mg/kg xylazine. Using a 1.0-cm-diameter disposable biopsy punch, two symmetrical wounds were created on the dorsum of each rat. A circular gauze dressing 8 mm in diameter was saturated overnight with either vehicle or 4F at 10 mg/ml in sterile centrifuge tubes. To assess tolerability, the rats were weighed daily and observed for wound healing, behavior changes, and visible adverse drug effects for 5 days. To assess efficacy, A. baumannii strain AB5075 was grown overnight and the culture was diluted to provide the challenge inoculum (500 CFU) as 50 μl of bacterial suspension in 0.9% (wt/vol) NaCl. A circular gauze dressing 8 mm in diameter was saturated overnight with vehicle, tetracycline, or 4F at 10 mg/ml in sterile centrifuge tubes. These saturated dressings were topically applied to the wound site with sterile forceps twice daily, starting at 30 min postinoculation, for 6 days. Rats were observed twice daily for morbidity and possible signs of acute toxicity. Two and four independent cutaneous wounds were tested in tolerability and efficacy assessments, respectively.

[2] = system: MDR A. baumannii strain AB5075; test: microbe, parasite or virus in culture; assay type: cell-based, Acinetobacter baumannii; conditions: Acinetobacter baumannii; MDR strain AB5075; read-out: in vitro MIC, A. baumannii AB5075
Procedure: (§1) Standard susceptibility assays were performed in LB medium in 96-well microtiter plates to determine the MIC by the broth microdilution method in accordance with protocols recommended by Clinical and Laboratory Standards Institute ([35]). Cytotoxicity was assessed using human HT-29 cells based on a similar broth microdilution method ([36]). All assays were performed in duplicate. For the cytotoxicity assay, 5,000 HT-29 cells per well were seeded into a microtiter plate and cultured for 24 h at 37°C in a 5% CO2 atmosphere. Peptides were supplemented at concentrations ranging from 128 to 0.5 μg/ml, and the cells were incubated for another 20 h. Growth media were removed, 3-(4,5-dimethylthiazol-2-yl)-2,5-diphenyltetrazolium bromide (MTT) was added to all wells (220 μl per well at 0.5 mg/ml), the mixture was incubated for 4 h, and then the media were discarded. Cell viability was determined by visual inspection.

[3] = system: Acinetobacter baumannii; assay type: cell-based
Procedure: (§2) Wang resins were purchased from Matrix Innovation. Reagents for peptide synthesis were purchased from P3 BioSystems, Chempep, and Chem-Impex International. The fluorescent dyes DiBAC4 and SYTOX were purchased from Thermo Fisher Scientific, and media were prepared from premixed powders: brain heart infusion for S. sobrinus and L. rhamnosus (Hardy Diagnostics), yeast extract-peptone-dextrose for C. albicans, lysogeny broth (LB) for all other bacteria (BD Biosciences), and McCoy’s 5A medium with 10% fetal bovine serum for HT-29 cells (American Type Culture Collection). All other chemicals and consumables were purchased from Sigma-Aldrich and VWR International. Paenimucillin 4F for in vivo studies was purchased from Ontores Biotechnologies as a high-performance liquid chromatography (HPLC)-purified peptide and used as is. Dye assays were performed in a Gen5 microtiter plate reader (Biotek Instruments). Liquid chromatography-mass spectrometry (LC-MS) analyses were performed by using an Acquity system (Waters Corporation).
as §1

[4] = system: Klebsiella pneumoniae; assay type: cell-based; conditions: 24 h
Procedure: as §2, §1

[5] = system: Bacillus subtilis; assay type: cell-based; conditions: 24 h
Procedure: as §2, §1

[6] = system: Pseudomonas aeruginosa; assay type: cell-based; conditions: 24 h
Procedure: as §2, §1

[7] = system: Streptococcus sobrinus; assay type: cell-based; conditions: 24 h
Procedure: as §2, §1

[8] = system: Lactobacillus rhamnosus; assay type: cell-based; conditions: 24 h
Procedure: as §2, §1

[9] = system: Enterococcus faecalis; assay type: cell-based; conditions: 24 h
Procedure: as §2, §1

[10] = system: Enterococcus faecium; assay type: cell-based
Procedure: as §2, §1

[11] = system: Enterobacter cloacae; assay type: cell-based; conditions: 24 h
Procedure: as §2, §1

[12] = system: Staphylococcus aureus; assay type: cell-based; conditions: 24 h
Procedure: as §2, §1

[13] = system: A. baumannii clinical isolate 1791; assay type: cell-based, Acinetobacter baumannii; conditions: clinical isolate 1791, 24 h
Procedure: as §2, §1

[14] = system: A. baumannii clinical isolate 1797; assay type: cell-based, Acinetobacter baumannii; conditions: clinical isolate 1797, 24 h
Procedure: as §2, §1

[15] = system: A. baumannii clinical isolate 1788; assay type: cell-based, Acinetobacter baumannii; conditions: clinical isolate 1788, 24 h
Procedure: as §2, §1

[16] = system: A. baumannii clinical isolate S3; assay type: cell-based, Acinetobacter baumannii; conditions: clinical isolate S3, 24 h
Procedure: as §2, §1

[17] = system: A. baumannii clinical isolate S5; assay type: cell-based, Acinetobacter baumannii; conditions: clinical isolate S5, 24 h
Procedure: as §2, §1

[18] = system: A. baumannii clinical isolate 1795; assay type: cell-based, Acinetobacter baumannii; conditions: clinical isolate 1795, 24 h
Procedure: as §2, §1

[19] = system: A. baumannii clinical isolate 1790; assay type: cell-based, Acinetobacter baumannii; conditions: clinical isolate 1790, 24 h
Procedure: as §2, §1

[20] = system: C. albicans; test: Toxicity assessment, MIC against C. albicans; assay type: cell-based, Candida albicans; conditions: Brady lab strain; yeast extract-peptone-dextrose; surrogate for cytotoxicity; duplicate
Procedure: as §2, with “Liquid chromatography-mass spectrometry (LC-MS) analyses were performed by using an Acquity system (Waters Corporation).” left out
Standard susceptibility assays were performed in LB medium in 96-well microtiter plates to determine the MIC by the broth microdilution method in accordance with protocols recommended by Clinical and Laboratory Standards Institute ([35]). Cytotoxicity was assessed using human HT-29 cells based on a similar broth microdilution method ([36]). […] Cell viability was determined by visual inspection.

Compound	MIC Acinetobacter baumannii ([3]; 24 h)	MIC Klebsiella pneumoniae [4]	MIC Bacillus subtilis [5]	MIC Pseudomonas aeruginosa [6]	MIC Streptococcus sobrinus [7]	MIC Lactobacillus rhamnosus [8]	MIC Enterococcus faecalis [9]	MIC Enterococcus faecium ([10]; 24 h)	MIC Enterobacter cloacae [11]	MIC Staphylococcus aureus [12]	further results
CN(C)[C@@H]1C(O)=C(C(N)=O)C(=O)[C@@]2(O)C(O)=C3C(=O)c4c(O)cccc4[C@@](C)(O)[C@H]3C[C@@H]12 [tetracycline, reference compound]											bacterial burden of wound, day 3 [1]: 6.4 ± 0.31 log CFU; MIC [2]: 0.25 µg/mL (≈ 0.563 µM)
CC[C@@H](C)[C@@H](NC(=O)[C@@H](NC(=O)[C@H](CO)NC(=O)[C@H](Cc1ccccc1)NC(=O)[C@@H](CCCN)NC(=O)[C@H](CO)NC(=O)[C@H](CO)NC(=O)[C@@H](Cc1ccccc1)NC(=O)[C@@H](CO)NC(=O)[C@H](NC(=O)[C@@H](CCCN)NC(=O)[C@H](N)Cc1ccccc1)[C@H](C)CC)C(C)C)C(=O)N[C@@H](CCCN)C(=O)O [5F] (H-[dF][dOrn][dI][dS][dF]SS[dOrn]FSV[dI][Orn]-OH)	32 µg/mL (≈ 21.7 µM)	4 µg/mL (≈ 2.71 µM)	16 µg/mL (≈ 10.8 µM)	64 µg/mL (≈ 43.4 µM)	64 µg/mL (≈ 43.4 µM)	128 µg/mL (≈ 86.7 µM)	32 µg/mL (≈ 21.7 µM)	32 µg/mL (≈ 21.7 µM)	8 µg/mL (≈ 5.42 µM)	64 µg/mL (≈ 43.4 µM)	
CCCCCCCCCC(=O)N[C@H](Cc1ccccc1)C(=O)N[C@H](CCCN)C(=O)N[C@@H](C(=O)N[C@H](CO)C(=O)N[C@H](Cc1ccccc1)C(=O)N[C@@H](CO)C(=O)N[C@@H](CO)C(=O)N[C@H](CCCN)C(=O)N[C@@H](Cc1ccccc1)C(=O)N[C@@H](CO)C(=O)N[C@H](C(=O)N[C@@H](C(=O)N[C@@H](CCCN)C(=O)O)[C@H](C)CC)C(C)C)[C@H](C)CC [1F, paenimucillin A] (Decanoyl-[dF][dOrn][dI][dS][dF]SS[dOrn]FSV[dI][Orn]-OH)			4 µg/mL (≈ 2.45 µM)		2 µg/mL (≈ 1.23 µM)	16 µg/mL (≈ 9.82 µM)	32 µg/mL (≈ 19.6 µM)			16 µg/mL (≈ 9.82 µM)	MIC Acinetobacter baumannii ([3]; strain ATCC 17978, LB medium, broth microdilution, duplicate): 16 µg/mL (≈ 9.82 µM); MIC Enterococcus faecium ([10]; strain Com15, LB medium, broth microdilution, duplicate): 4 µg/mL (≈ 2.45 µM)
CC[C@@H](C)[C@@H](NC(=O)[C@@H](NC(=O)[C@H](CO)NC(=O)[C@H](Cc1c[nH]c2ccccc12)NC(=O)[C@@H](CCCN)NC(=O)[C@H](CO)NC(=O)[C@H](CO)NC(=O)[C@@H](Cc1c[nH]c2ccccc12)NC(=O)[C@@H](CO)NC(=O)[C@H](NC(=O)[C@@H](CCCN)NC(=O)[C@@H](Cc1ccccc1)NC(C)=O)[C@H](C)CC)C(C)C)C(=O)N[C@@H](CCCN)C(=O)O [4W] (Ac-[dF][dOrn][dI][dS][dW]SS[dOrn]WSV[dI][Orn]-OH)	1 µg/mL (≈ 0.627 µM)	2 µg/mL (≈ 1.25 µM)	1 µg/mL (≈ 0.627 µM)	16 µg/mL (≈ 10 µM)	2 µg/mL (≈ 1.25 µM)	2 µg/mL (≈ 1.25 µM)	4 µg/mL (≈ 2.51 µM)	32 µg/mL (≈ 20.1 µM)	2 µg/mL (≈ 1.25 µM)	4 µg/mL (≈ 2.51 µM)	MIC for A. baumannii clinical isolate 1791 [13]: 0.5 µg/mL; MIC for A. baumannii clinical isolate 1797 [14]: 2 µg/mL; MIC for A. baumannii clinical isolate 1788 [15]: 2 µg/mL; MIC for A. baumannii clinical isolate S3 [16]: 4 µg/mL; MIC for A. baumannii clinical isolate S5 [17]: 4 µg/mL; MIC for A. baumannii clinical isolate 1795 [18]: 2 µg/mL; MIC for A. baumannii clinical isolate 1790 [19]: 0.5 µg/mL; MIC, toxicity assessment, C. albicans [20]: 128 µg/mL (≈ 80.2 µM)
CCCCCCCCCC(=O)N[C@H](Cc1ccccc1)C(=O)N[C@H](CCCN)C(=O)N[C@@H](C(=O)N[C@H](CO)C(=O)N[C@H](Cc1c[nH]c2ccccc12)C(=O)N[C@@H](CO)C(=O)N[C@@H](CO)C(=O)N[C@H](CCCN)C(=O)N[C@@H](Cc1c[nH]c2ccccc12)C(=O)N[C@@H](CO)C(=O)N[C@H](C(=O)N[C@@H](C(=O)N[C@@H](CCCN)C(=O)O)[C@H](C)CC)C(C)C)[C@H](C)CC [1W, paenimucillin B] (Decanoyl-[dF][dOrn][dI][dS][dW]SS[dOrn]WSV[dI][Orn]-OH)	128 µg/mL (≈ 74.9 µM)		16 µg/mL (≈ 9.37 µM)		1 µg/mL (≈ 0.585 µM)	2 µg/mL (≈ 1.17 µM)	128 µg/mL (≈ 74.9 µM)	4 µg/mL (≈ 2.34 µM)		64 µg/mL (≈ 37.5 µM)	
CC[C@@H](C)[C@@H](NC(=O)[C@@H](NC(=O)[C@H](CO)NC(=O)[C@H](Cc1c[nH]c2ccccc12)NC(=O)[C@@H](CCCN)NC(=O)[C@H](CO)NC(=O)[C@H](CO)NC(=O)[C@@H](Cc1c[nH]c2ccccc12)NC(=O)[C@@H](CO)NC(=O)[C@H](NC(=O)[C@@H](CCCN)NC(=O)[C@H](N)Cc1ccccc1)[C@H](C)CC)C(C)C)C(=O)N[C@@H](CCCN)C(=O)O [5W] (H-[dF][dOrn][dI][dS][dW]SS[dOrn]WSV[dI][Orn]-OH)	4 µg/mL (≈ 2.57 µM)	4 µg/mL (≈ 2.57 µM)	2 µg/mL (≈ 1.29 µM)	16 µg/mL (≈ 10.3 µM)	4 µg/mL (≈ 2.57 µM)	4 µg/mL (≈ 2.57 µM)	4 µg/mL (≈ 2.57 µM)	8 µg/mL (≈ 5.15 µM)	4 µg/mL (≈ 2.57 µM)	8 µg/mL (≈ 5.15 µM)	
